By IC50 is commonly meant the concentration needed to halve the response being measured.

This is an account of results in ChEMBL document CHEMBL6177944, “Derivatization of ophiobolin A and cytotoxicity toward breast and glioblastoma cancer stem cells: Varying the ketone and unsaturated aldehyde moieties” (Bioorg Med Chem Lett, 2025).

The source made the active and inactive calls. The calls are words filed in the database; no cut-off is given here.

Series [1] in a line: Selectivity index, ratio of IC50 for cytotoxicity against HMLE cells to IC50 for cytotoxicity against human HMLE cells expressing Twist EMT+. The series is classed as toxicity, cell-based. As to conditions: HMLE cells and HMLE cells expressing Twist (EMT+), read-out: Ratio IC50.
The next series concerns T98G. The experiment in a line: Cytotoxicity against human T98G cells. The series is classed as functional, cell-based.
In a further series the test system is MCF7. The experiment in a line: Cytotoxicity against human MCF7 cells. In kind it is functional, cell-based.
A short description of series [2]: Cytotoxicity against HMLE cells. The series is classed as toxicity, cell-based. The settings on record: human.
Series [3] can be described thus: Selectivity index, ratio of IC50 for cytotoxicity against human T98G cells to IC50 for cytotoxicity against human GBM43 cells. In kind it is functional.
Series [4] can be described thus: (§1) Cytotoxicity against HMLE cells expressing Twist EMT+. The series is classed as functional, cell-based. As to conditions: Homo sapiens.
The nature of series [5]: Selectivity index, ratio of IC50 for cytotoxicity against human MCF7 cells to IC50 for cytotoxicity against human MDA-MB-231 cells. In kind it is cell-based.
Series [6] is described as follows: Cytotoxicity against human GBM43 cells. The series is classed as functional, cell-based. The settings on record: GBM43 cell.
The next series relates to MDA-MB-231. In words: Cytotoxicity against human MDA-MB-231 cells. In kind it is functional, cell-based.
For a further series, the system named is HMLE. The series is described as §1. The series is classed as functional, cell-based. The settings on record: Homo sapiens.
The nature of series [7]: Cytotoxicity against HMLE cells assessed as reduction in cell viability at 1 uM relative to control. The settings on record: human. The series is classed as toxicity, cell-based.

Regarding `CC(C)=C[C@H]1C[C@H](C)[C@]2(CC[C@]3(C)C[C@H]4[C@H]5[C@@H](CC[C@H]32)[C@H](O)O[C@H]5C[C@@]4(C)O)O1`, the selectivity ratio in series [1] is roughly 0.47. The IC50 in the series on T98G was 444 µM; with MCF7 it was 149 µM; in series [2], 58.1 µM; in series [4], 123 µM; in series [6] it was 363 µM; in the series on MDA-MB-231, 136 µM. Further, the “Ratio IC50” value in series [3] is reported as roughly 1.2; in series [5], ~ 1.1.

As for `CC(C)=C[C@H]1C[C@H](C)[C@]2(CC[C@]3(C)C[C@H]4[C@H]5/C(=C\C[C@H]32)CO[C@@]5(O)C[C@@]4(C)O)O1`, the selectivity ratio in series [1] is roughly 2.9. In addition, the IC50 came out at 107 µM in the series on MCF7, 25.9 µM in series [2], 8.84 µM in series [4] and 128 µM in the series with MDA-MB-231. In addition, the “Ratio IC50” value in [5] was ~ 0.84.

As to `CC(C)=C[C@H]1C[C@H](C)[C@]2(CC[C@]3(C)C[C@H]4[C@H]5/C(=C\C[C@H]32)C(=O)O[C@H]5C[C@@]4(C)O)O1` [OPHIOBOLIN A LACTONE], the selectivity ratio in series [1] was roughly 1.4. The IC50 in the series on T98G was 102 µM; in the series with MCF7 it was 232 µM; in [2], 91 µM; in series [4], 63.6 µM; in series [6], 8.6 µM; in the series on MDA-MB-231, 313 µM. Besides, the entries for the “Ratio IC50” value in [3] and in [5] were roughly 12 and ~ 0.74, respectively.

With `CC1(C)CC/C=C(/C=O)[C@H]2C(=O)C[C@@](C)(O)[C@H]2C1`, the IC50 with T98G stood at 859 µM; in series [6] it was 106 µM. Further, the “Ratio IC50” value in [3] is given as roughly 8.

Take `CC(C)=C[C@H]1C[C@H](C)[C@]2(CC[C@]3(C)C[C@H]4[C@@H](/C(CO)=C\C[C@H]32)[C@@H](O)C[C@@]4(C)O)O1`: the selectivity ratio in series [1] was roughly 1. For the same molecule, the IC50 was greater than 1000 µM in the series with T98G; 387 µM in the series with MCF7; 140 µM in [2]; 134 µM in [4]; greater than 1000 µM in series [6]; 384 µM in the series on MDA-MB-231. Also, the “Ratio IC50” value in series [5] is ~ 1.

As for `CC(C)=C[C@H]1C[C@H](C)[C@]2(CC[C@]3(C)C[C@H]4[C@H](C(=O)C[C@@]4(C)O)/C(C=O)=C\C[C@H]32)O1` [OPHIOBOLIN A], the selectivity ratio in series [1] was roughly 2.1. The IC50 in the series on T98G amounted to 1.9 µM; in series [2], 0.063 µM; in series [4], 0.029 µM. Further, in series [3], the “Ratio IC50” value is on record as roughly 9.

With `CC(C)=C[C@H]1C[C@H](C)[C@]2(CC[C@]3(C)C[C@@H]4C(C)=CC(=O)[C@@H]4/C(CO)=C\C[C@H]32)O1`, the figures for the IC50 (in the series with T98G; in [6]) were 298 µM and 24 µM, respectively. In series [3], the “Ratio IC50” value was roughly 12.

On to `CC(C)=C[C@H]1C[C@H](C)[C@]2(CC[C@]3(C)C[C@H]4[C@H]5/C(=C\C[C@H]32)C(O)O[C@H]5C[C@@]4(C)O)O1` (stereo partly specified), for which, in series [1], the selectivity ratio was roughly 2.2. For the same molecule, the IC50 worked out at 39.6 µM in the series with MCF7, 50.2 µM in series [2], 22.5 µM in series [4] and 157 µM in the series with MDA-MB-231. Also, in series [5], the “Ratio IC50” value is ~ 0.25.

For the molecule `COc1cccc2c1C(=O)c1c(O)c3c(c(O)c1C2=O)C[C@@](O)(C(=O)CO)C[C@@H]3O[C@H]1C[C@H](N)[C@H](O)[C@H](C)O1` [DOXORUBICIN], the result in the series with HMLE was inactive. Besides, the Activity in series [7] was less than 50%.
